Measured values: PubChem BioAssay (NCI)
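Protocol summary: plate cells (96-well), add compound at 5 concentrations, incubate 48 h, interpolate endpoints linearly. GI50: concentration for 50% inhibition of growth. TGI marks complete inhibition of growth.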

How the values were obtained:
Assay in all cases: DTP human tumour cell line panel, 48 h
[1] = test system: HCC-2998 colon
[2] = test system: CCRF-CEM leukemia
[3] = test system: SR leukemia
[4] = test system: KM12 colon
[5] = test system: LOX IMVI melanoma
[6] = test system: UACC-257 melanoma
[7] = test system: OVCAR-4 ovarian
[8] = test system: EKVX NSCLC
[9] = test system: MOLT-4 leukemia
[10] = test system: HCT-116 colon

Row | SMILES | TGI [1] [µM] | TGI [2] [µM] | TGI [3] [µM] | TGI [4] [µM] | TGI [5] [µM] | TGI [6] [µM] | TGI [7] [µM] | TGI [8] [µM] | TGI [9] [µM] | TGI [10] [µM] | GI50 [1] [µM] | GI50 [2] [µM] | GI50 [3] [µM] | GI50 [4] [µM] | GI50 [5] [µM] | GI50 [7] [µM] | GI50 [8] [µM] | GI50 [10] [µM] | GI50 [6] [µM] | GI50 [9] [µM]
1 | O=C(O)CSc1n[nH]c(/C=C/c2ccccc2)n1 | > 100 | > 100 | > 100 | > 100 | > 100 | > 100 | > 100 | > 100 | > 100 | > 100 | – | – | – | – | – | – | – | – | – | –
2 | C[C@]12CC[C@H](O)CC1=CC[C@@H]1[C@@H]2CC[C@]2(C)C(=O)/C(=C/c3cccc(OCCCn4ccnc4)c3)C[C@@H]12 | > 100 | > 100 | 40 | > 100 | 56.2 | – | 64.6 | 46.3 | – | 30.2 | 34.1 | 16.4 | 13.9 | 34 | 23.1 | 19.6 | 21.1 | 15 | – | –
3 | Cc1ccc(NS(=O)(=O)c2ccc(-c3cnc(C4CC4)o3)cc2)cc1 | 23.5 | 34.6 | 17.7 | 15.9 | 18.2 | 27.8 | 17.6 | 19.9 | 20.9 | 15.2 | 10.8 | 3.31 | 0.316 | 2.53 | 4.88 | 3.87 | 4.24 | 2.49 | 10.8 | 3.22
4 | Cn1ncc2cc(-c3cnc(N)c(Cl)c3N3CCC4(CCNC4=O)CC3)ccc21 | > 100 | > 100 | 57.2 | > 100 | > 100 | 66.1 | > 100 | > 100 | > 100 | > 100 | > 100 | 36.9 | 6.4 | 32.3 | 33.1 | 38.9 | 12.9 | 37.4 | 31.2 | 20.7
5 | N=C(N)/N=C(/C=C/c1ccccc1)CC1OC(=O)c2ccccc21 (configuration not stated) | > 100 | > 100 | > 100 | > 100 | > 100 | > 100 | > 100 | > 100 | > 100 | > 100 | – | – | – | – | – | – | – | – | – | –
6 | CCCC[C@@H]1NC(=O)[C@H](CCCCN)NC(=O)[C@H](CCCNC(=N)N)NC(=O)[C@H](CC(C)C)NC(=O)[C@@H](NC(=O)[C@H](Cc2cccc(Cl)c2)NC(=O)[C@@H]2CCCN2C(=O)[C@@H](NC(C)=O)C(C)C)CCSSC[C@@H](C(=O)N[C@@H](CCCCN)C(=O)N2CCC[C@H]2C(=O)N2CCC[C@H]2C(=O)N[C@@H](CCC(=O)O)C(N)=O)NC(=O)[C@H](Cc2ccccc2)NC(=O)[C@H](CO)NC(=O)[C@H](C)NC(=O)[C@@H]2CCCN2C1=O | > 50 | > 50 | > 50 | > 50 | > 50 | > 50 | > 50 | > 50 | > 50 | > 50 | > 50 | > 50 | > 50 | > 50 | > 50 | > 50 | > 50 | > 50 | > 50 | > 50
7 | O=c1cc2n(c(=O)[nH]1)C1OC(C(O)C1O)[C@@H]2CCO (some centres not stated) | – | > 100 | > 100 | > 100 | > 100 | > 100 | > 100 | > 100 | > 100 | – | – | – | – | – | – | – | – | – | – | –
8 | COc1ccc2c(c1)Oc1nc(N)c(C#N)c(N)c1C2Sc1ccc(SC)cc1 (configuration not stated) | 3.36 | – | 6.66 | 3.49 | 3.21 | 3.38 | 3.07 | 3.09 | 6.87 | 3.24 | 1.78 | – | 2.25 | 1.78 | 1.68 | 1.64 | 1.66 | 1.76 | 1.9 | 2.83
9 | COc1cc2c(cc1OC)C13CCN4CC5=CCOC(CC(=O)O)C(C5CC41)C3N2 (configuration not stated) | – | > 100 | > 100 | > 100 | > 100 | > 100 | > 100 | > 100 | > 100 | > 100 | – | – | – | – | – | – | – | – | – | –
10 | Cc1cccc(C)c1NC(=O)CCC(=O)NNC(=O)c1cc(O)c2ccccc2c1 | > 100 | 72.5 | > 100 | > 100 | > 100 | > 100 | – | > 100 | > 100 | > 100 | – | – | – | – | – | – | – | – | – | –
11 | CS(=O)(=O)C1S(=O)(=O)OCCOS1(=O)=O | > 100 | – | > 100 | > 100 | > 100 | > 100 | > 100 | > 100 | > 100 | > 100 | – | – | – | – | – | – | – | – | – | –
12 | OCC(O)CC[CH2][Sn]([c]1ccccc1)([c]1ccccc1)[c]1ccccc1 (configuration not stated) | 34.5 | 41.6 | > 100 | 29.8 | 30.7 | 35.8 | 32.2 | 31.7 | – | 22.7 | 18.2 | 13.7 | 49.3 | 13.9 | 14.9 | 16.5 | 16.5 | 10.8 | 18.4 | –
13 | CO/N=C(\c1ccccc1)c1cnn(-c2ccccc2)c1N | > 25 | > 25 | > 25 | > 25 | > 25 | > 25 | > 25 | – | > 25 | > 25 | > 25 | > 25 | > 25 | > 25 | > 25 | > 25 | – | > 25 | > 25 | > 25
14 | CC1OCC2OC(C)OC(C3C4=C(CC(C)(C)CC4=O)OC4=C3C(=O)CC(C)(C)C4)C2O1 (configuration not stated) | > 100 | > 100 | > 100 | > 100 | > 100 | > 100 | – | > 100 | > 100 | > 100 | – | – | – | – | – | – | – | – | – | –
15 | CN(C(=O)C1CCCCC1)c1ccccc1I(=O)=O | > 100 | 38 | 36.1 | > 100 | > 100 | > 100 | > 100 | > 100 | 51.8 | – | 70.3 | 17.6 | 13.7 | 37.8 | 40.2 | 33.2 | 43.4 | – | 63.6 | 18
